From ChEMBL document CHEMBL1157511, “Dictazolines A and B, bisspiroimidazolidinones from the marine sponge Smenospongia cerebriformis” (J Nat Prod, 2008)
Active and inactive are the calls of the source. The calls are words filed in the database; no cut-off is given here.

Experiment: Inhibition of beta-secretase assessed as proteolytic cleavage of amyloid precursor protein

Compound | Activity
CN1C(=N)N(C)[C@@]2(Cc3c([nH]c4ccccc34)[C@]3(C(=O)N(C)C(=N)N3C)[C@@H]2c2c[nH]c3cc(Br)ccc23)C1=O | inactive
CN1C(=N)N(C)[C@@]2(Cc3c([nH]c4ccccc34)[C@]3(C(=O)N(C)C(=N)N3C)[C@@H]2c2c[nH]c3ccccc23)C1=O | inactive
